In patent US20160362478A1, “CD4-MIMETIC SMALL MOLECULES SENSITIZE HUMAN IMMUNODEFICIENCY VIRUS TO VACCINE-ELICITED ANTIBODIES” (priority 2014, published 2016):

What was measured:
[1] = target: HIV-1 JR-FL envelope glycoproteins (Env) (HIV-1 JR-FL); assay: cell-based or functional assay
[2] = target: HIV-1 YU2 envelope glycoproteins (Env) (HIV-1 YU2) (UniProt P35961); assay: cell-based or functional assay
[3] = test system: HIV-1 JR-FL; assay: Cold inactivation of recombinant virus on ice; format: cell-based; conditions: compound 50 μM
Protocol: Cold Inactivation. […] Cf2Th-CCR5-CD4 target cells were seeded at a density of […] cells/well in a 96-well luminometer-compatible tissue-culture plate (PerkinElmer) 24 h before infection. The mixtures were then added to target cells and incubated for 48 h at 37° C.; after this time, the medium was removed from each well, and the cells were lysed by the addition of 30 μL passive lysis buffer (Promega) and three freeze-thaw cycles. An EG&G Berthold Microplate Luminometer LB 96V was used to measure the luciferase activity of each well after the addition of 100 μL of luciferin buffer (15 mM MgSO4, 15 mM KPO4, pH 7.8, 1 mM ATP, and 1 mM dithiothreitol) and 50 μL of 1 mM Firefly D-Luciferin Free Acid 99% (Prolume).

[4] = test system: HIV-1 JR-FL; assay: Sensitization assay: antibody neutralization of HIV-1 JR-FL with CD4-mimetic compound; format: cell-based; conditions: for sensitization of HIV-1 JR-FL to neutralization by 17b and 39F antibodies: sub-neutralizing compound concentrations
Protocol: (§1) Infection by single-round luciferase viruses. Cf2Th-CCR5-CD4 target cells were seeded at a density of 6×10^3 cells/well in 96-well luminometer-compatible tissue culture plates (PerkinElmer) 24 h before infection. […] In the case of sensitization assays, a constant concentration of compounds was incubated with virus for 30 min at 37° C.; then, 17b or other antibodies (0-100 μg/mL) were added to the virus/compound mixture and incubated for an additional 30 min at 37° C. The mixtures were then added to the target cells and incubated for 48 h at 37° C.; after this time, the medium was removed from each well, and the cells were lysed by the addition of 30 μL passive lysis buffer (Promega) and three freeze-thaw cycles. An EG&G Berthold Microplate Luminometer LB 96V was used to measure the luciferase activity of each well after the addition of 100 μL of luciferin buffer (15 mM MgSO4, 15 mM KPO4, pH 7.8, 1 mM ATP, and 1 mM dithiothreitol) and 50 μL of 1 mM Firefly D-Luciferin Free Acid 99% (Prolume).
The ability of (+)-DMJ-I-228 and (+)-DMJ-II-121 to each sensitize HIV-1 to neutralization by antibodies was examined using the single-round infection of Cf2Th-CD4/CCR5 cells by recombinant HIV-1 encoding firefly luciferase. The recombinant viruses were pseudotyped with the HIV-1 Envs derived from the primary R5 HIV-1 JR-FL and YU2 isolates. Recombinant HIV-1 pseudotyped with the amphotropic murine leukemia virus (A-MLV) Env was used as a control for specificity. HIV-L neutralization was examined in the presence of sub-neutralizing concentrations of the CD4-mimetic compounds and different concentrations of monoclonal antibodies. […] The 17b antibody recognizes a well-conserved CD4i epitope on the HIV-1 gp120 core that is not formed or exposed in the unliganded Env of primary HIV-1 strains. The 39F antibody recognizes a conformation-dependent epitope in the gp120 V3 region of primary R5 HIV-1. […] and (+)-DMJ-II-121 each render primary HIV-1 isolates sensitive to neutralization by monoclonal antibodies directed against CD4i and V3 epitopes on the gp120 Env.

[5] = test system: HIV-1 JR-FL; assay: Infection of Cf2Th-CD4/CCR5 cells by single-round luciferase virus with HIV-1 JR-FL Env; format: cell-based; conditions: for IC50: Human immunodeficiency virus 1, Cf2Th-CD4/CCR5, read-out: IC50, inhibition of HIV-1 JR-FL infection; for inhibition of HIV-1 JR-FL virus relative to parental NBD-556: cells expressing CD4 and CCR5
Protocol: (§2) Recombinant luciferase viruses: 293T human embryonic kidney cells were co-transfected with plasmids expressing the pCMVΔP1Δenv HIV-1 Gag-Pol packaging construct, the R5 YU2 envelope glycoproteins, or the envelope glycoprotein of the control amphotropic murine leukemia virus (A-MLV), and the firefly luciferase-expressing vector at a DNA ratio of 1:1:3 μg using the Effectene transfection reagent (Qiagen). Co-transfection produced single-round, replication-defective viruses. The virus-containing supernatants were harvested 36-40 h after transfection, spun, aliquoted, and frozen at −80° C. until further use. The reverse transcriptase (RT) activities of all viruses were measured as described in Rho, H. M., et al. Virology 1981, 112, 355-360.
as §1
The ability of selected CD4-mimetic compounds to inhibit HIV-1 entry was examined. […] Recombinant HIV-1 expressing the firefly luciferase gene was pseudotyped with different envelope glycoproteins, either HIV-1 JR-FL Env or, as a control, the amphotropic murine leukemia virus (A-MLV) envelope glycoproteins. The recombinant viruses were incubated with cells expressing CD4 and CCR5 in the presence of different concentrations of the compounds.

[6] = test system: HIV-1 YU2; assay: Infection of Cf2Th-CD4/CCR5 cells by single-round luciferase virus with HIV-1 YU2 Env; format: cell-based; conditions: Human immunodeficiency virus 1, Cf2Th-CD4/CCR5, read-out: IC50, inhibition of HIV-1 YU2 infection
Protocol: as §2
(§3) Infection by single-round luciferase viruses. Cf2Th-CCR5-CD4 target cells were seeded at a density of 6×10^3 cells/well in 96-well luminometer-compatible tissue culture plates (PerkinElmer) 24 h before infection. […] In the case of sensitization assays, a constant concentration of compounds was incubated with virus for 30 min at 37° C.; then, 17b or other antibodies (0-100 μg/mL) were added to the virus/compound mixture and incubated for an additional 30 min at 37° C. […]

[7] = test system: A-MLV; assay: Infection by control virus pseudotyped with A-MLV envelope glycoproteins; format: cell-based, amphotropic murine leukemia virus; conditions: at 100 μM
Protocol: as §2, §3

[8] = test system: HIV-1; assay: Inhibition of HIV-1 infection (overview statement); format: cell-based; conditions: Human immunodeficiency virus 1, read-out: IC50, inhibition of HIV-1 infection
[9] = target: wild-type HIV-1 YU2 gp120 glycoprotein (Human immunodeficiency virus type 1 group M subtype B, UniProt P35961); assay: Isothermal titration calorimetry, binding to gp120; conditions: ITC, 25° C.
Protocol: Isothermal Titration Calorimetry. Thermodynamic parameters for the binding of the different inhibitors to gp120 were obtained by isothermal titration calorimetry (ITC) using a VP-ITC microcalorimeter from MicroCal/GE Healthcare (Northampton, Mass., USA). The titrations were performed at 25° C. by injecting 10 μL aliquots of inhibitor solution into the calorimetric cell (volume ˜1.4 mL) containing gp120 at a concentration of 2 μM. […] In all titration experiments, gp120 and the different inhibitors were equilibrated with PBS, pH 7.4, with 2% DMSO. The heat evolved upon each injection of inhibitor was obtained by integration of the calorimetric signal. The heat associated with inhibitor binding to gp120 was obtained by subtracting the heat of dilution from the heat of reaction. The enthalpy change (ΔH) and association constant (Ka=[…]) were obtained by nonlinear regression of the data.
The thermodynamics of the binding of each compound to the wild-type HIV-1 YU2 gp120 glycoprotein was analyzed by isothermal titration calorimetry.

[10] = test system: HIV-1 YU2; assay: Sensitization assay: antibody neutralization of HIV-1 YU2 with CD4-mimetic compound; format: cell-based; conditions: sub-neutralizing compound concentrations
Protocol: as §1
The ability of (+)-DMJ-I-228 and (+)-DMJ-II-121 to each sensitize HIV-1 to neutralization by antibodies was examined using the single-round infection of Cf2Th-CD4/CCR5 cells by recombinant HIV-1 encoding firefly luciferase. The recombinant viruses were pseudotyped with the HIV-1 Envs derived from the primary R5 HIV-1 JR-FL and YU2 isolates. […]

[11] = test system: primary CD4 T cells infected with transmitted/founder (T/F) viruses and their 6-month counterparts; assay: Recognition of primary CD4 T cells infected with primary HIV-1 by HIV-1+ sera; format: cell-based, human; conditions: data not shown
[12] = test system: HIV-1 JR-FL; assay: Sensitization of HIV-1 JR-FL to neutralization by rabbit antisera elicited by gp120 cores; format: cell-based
Protocol: as §1
Animal inoculations and analysis of antisera. Approximately 12-week-old female New Zealand White rabbits were housed at the AAALAC-accredited facilities at Bioqual (Rockville, Md.) under specific pathogen-free conditions. At 4-week intervals, rabbits were inoculated intramuscularly with […] of affinity-purified protein formulated in GlaxoSmithKline Adjuvant System AS01B by splitting the protein-adjuvant mix in the two hind legs. Serum was prepared, heat inactivated, and assessed for anti-gp120 ELISA titers and the presence neutralizing antibodies.
(+)-DMJ-I-228 and (+)-DMJ-II-121 were examined to determine if they could sensitize HIV-1 to neutralization by antisera elicited by an Env immunogen. […] These stabilized gp120 cores were derived from the laboratory-adapted HIV-1 HXBc2 strain and lack the V1, V2, and V3 variable regions. […]

[13] = test system: HIV-1 transmitted/founder viruses; assay: Inhibition and 17b sensitization of transmitted/founder viruses; format: cell-based
Protocol: as §1
The ability of (+)-DMJ-II-121 to sensitize HIV-1 transmitted/founder viruses to neutralization by the 17b antibody (FIG. 8A) and antisera elicited by the 3CC gp120 core immunogen (FIG. 8B) was examined. In these experiments, the recombinant viruses were pseudotyped with the HIV-1 Envs derived from HIV-1 transmitted/founder viruses. Recombinant HIV-1 pseudotyped with the primary R5 HIV-1 JR-FL and the amphotropic murine leukemia virus (A-MLV) Envs served as positive and negative controls, respectively. HIV-1 neutralization was examined in the presence of sub-neutralizing concentrations of (+)-DMJ-II-121 and different concentrations of the 17b antibody or sera.

[14] = test system: HIV-1 transmitted/founder viruses; assay: Sensitization of transmitted/founder viruses to 3CC gp120 core antisera; format: cell-based
Protocol: as §1
Animal inoculations and analysis of antisera. Approximately 12-week-old female New Zealand White rabbits were housed at the AAALAC-accredited facilities at Bioqual (Rockville, Md.) under specific pathogen-free conditions. […] Serum was prepared, heat inactivated, and assessed for anti-gp120 ELISA titers and the presence neutralizing antibodies. […]

| Molecule | neutralization of pseudotyped virus, no CD4-mimetic compound [1] [µg/mL] | neutralization of pseudotyped virus, no CD4-mimetic compound [2] [µg/mL] | half-life of HIV-1 JR-FL infectivity on ice in the presence of the compound [3] [h] | IC50 [5] [µM] | inhibition of HIV-1 JR-FL virus relative to parental NBD-556 [5] | IC50 [6] [µM] | inhibition of A-MLV infection [7] | IC50 [8] [µM] | ability to bind monomeric gp120 relative to NBD-556 [9] | sensitization of HIV-1 JR-FL to neutralization by 17b and 39F antibodies [4] | sensitization of HIV-1 YU2 to neutralization by 17b and 39F antibodies [10] | other results |
| --- | --- | --- | --- | --- | --- | --- | --- | --- | --- | --- | --- | --- |
| 17b antibody | > 100 | > 100 | – | – | – | – | – | – | – | – | – | IC50, inhibition of HIV-1 JR-FL entry into cells co-expressing CD4 and CCR5, in the presence of 30 µM (+)-DMJ-II-121 [1]: 0.6 µg/mL |
| CC1(C)CC(NC(=O)C(=O)Nc2ccc(Cl)cc2)CC(C)(C)N1 [NBD-556, reference compound] | – | – | 15.7 | – | – | – | – | – | – | – | – | effect on neutralization of HIV-1 JR-FL by the 17b antibody [4]: minimally affected; effect on neutralization of HIV-1 JR-FL by the 39F antibody ([4]; only at high concentrations): weakly increase |
| 39F antibody | > 100 | > 100 | – | – | – | – | – | – | – | – | – | – |
| N=C(N)N[C@H]1Cc2ccccc2[C@@H]1NC(=O)C(=O)Nc1ccc(Cl)c(F)c1 [(+)-DMJ-I-228] | – | – | 9.1 | 86.9 | specifically inhibited the HIV-1 JR-FL virus with an improved potency | 46.7 | Neither (+)-DMJ-I-228 nor (+)-DMJ-II-121 inhibited A-MLV infection | 22.9 | significant improvement in the ability to bind monomeric gp120 | each sensitized HIV-1 YU2 and JR-FL to neutralization by the 17b and 39F antibodies | each sensitized HIV-1 YU2 and JR-FL to neutralization by the 17b and 39F antibodies | recognition of cells infected with four primary viruses by HIV-1+ sera [11]: significantly enhance recognition |
| N=C(N)NC[C@H]1Cc2ccccc2[C@@H]1NC(=O)C(=O)Nc1ccc(Cl)c(F)c1 [(+)-DMJ-II-121] | – | – | 1.9 | 27.8 | specifically inhibited the HIV-1 JR-FL virus with an improved potency | 3.6 | Neither (+)-DMJ-I-228 nor (+)-DMJ-II-121 inhibited A-MLV infection | 2.3 | significant improvement in the ability to bind monomeric gp120 | each sensitized HIV-1 YU2 and JR-FL to neutralization by the 17b and 39F antibodies | each sensitized HIV-1 YU2 and JR-FL to neutralization by the 17b and 39F antibodies | sensitization of HIV-1 JR-FL to neutralization by sera from rabbits immunized with 3CC or 4CC stabilized gp120 cores [12]: sensitized HIV-1 JR-FL to neutralization; sera elicited by non-stabilized V3S core that neutralized HIV-1 JR-FL after incubation with compound [12]: None of the rabbit sera; sera from rabbits immunized with the 2CC gp120 core that neutralized HIV-1 JR-FL only in the presence of compound ([12]; five sera): Three of the five sera; number of transmitted/founder viruses sensitive to compound inhibition but not sensitized to 17b neutralization [13]: Three; sensitivity of transmitted/founder virus TA5 to the compound alone ([13]; TA5 virus): did not exhibit sensitivity; number of 17b-resistant transmitted/founder HIV-1 sensitized to neutralization by the 17b antibody ([13]; of ten 17b-resistant viruses, 50 μM compound): six; sensitivity of TD12 and B5 transmitted/founder viruses to 3CC antisera in the presence of compound [14]: increased sensitivity to neutralization by 3CC antisera |
